Measured values from US20190022092A1, “Therapeutic Combinations of a BTK Inhibitor and a GITR Binding Molecule, a 4-1BB Agonist, or an OX40 Agonist” (Acerta Pharma B.V., priority 2015, published 2019).

Assays:
[1] = test system: CD8+ T cell; test: Cytotoxicity assay for CD8+ T cell function; assay type: cell-based; conditions: relative to vehicle
From the text: FIG. 38 illustrates the results of the cytotoxicity assay for CD8^+ T cell function.

[2] = test system: GPVI platelet aggregation; test: GPVI platelet aggregation studies; assay type: cell-based; conditions: read-out: IC50, GPVI platelet aggregation
[3] = test system: EGFR phosphorylation (p-EGFR Y1069) in A431 cells; test: EGF-induced EGFR phosphorylation in A431 cells (phosphoflow); assay type: cell-based, human
Method: Phosphoflow cytometry was performed with p-EGFR (Y1069). MFI values were normalized so that 100% represents the p-EGFR level in stimulated cells without inhibitor, while 0% represents the unstimulated/no drug condition.

[4] = Cardiovascular function study in awake telemeterized dogs; assay type: in vivo; conditions: male beagle dogs, single doses through 30 mg/kg
From the text: Formula (2) was well tolerated in standard in vivo Good Laboratory Practices (GLP) studies of pharmacologic safety.

[5] = target: CYP3A4 (Homo sapiens, UniProt P08684); test: In vitro loss of parent drug as catalyzed by CYPs; assay type: in vitro ADME
CYP3A4, sequence (P08684 whole entry): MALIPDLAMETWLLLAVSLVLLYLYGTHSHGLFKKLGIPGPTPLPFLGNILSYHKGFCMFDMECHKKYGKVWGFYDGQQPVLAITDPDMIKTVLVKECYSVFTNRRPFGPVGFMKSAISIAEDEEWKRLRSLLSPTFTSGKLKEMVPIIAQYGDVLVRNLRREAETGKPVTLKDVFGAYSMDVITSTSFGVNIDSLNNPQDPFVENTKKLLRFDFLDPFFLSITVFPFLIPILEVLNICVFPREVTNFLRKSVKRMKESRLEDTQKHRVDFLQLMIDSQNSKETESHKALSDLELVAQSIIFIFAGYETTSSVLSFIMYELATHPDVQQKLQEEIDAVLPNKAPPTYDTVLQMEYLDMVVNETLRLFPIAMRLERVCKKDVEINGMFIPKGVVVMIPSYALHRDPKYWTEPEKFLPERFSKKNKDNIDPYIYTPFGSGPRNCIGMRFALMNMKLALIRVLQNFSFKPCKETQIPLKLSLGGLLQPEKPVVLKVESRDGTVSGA

[6] = Preliminary evaluation of metabolism in plasma, bile and urine; assay type: in vivo; conditions: rats, dogs, monkeys
[7] = test system: pancreatic cancer (KPC mice); test: KPC pancreatic cancer mouse model; assay type: in vivo
From the text: The KPC mouse model recapitulates many of the molecular, histopathologic, and clinical features of human disease (Westphalen and Olive, Cancer J. 2012, 18, 502-510). Mice were enrolled after identification of spontaneously appearing tumors in the pancreas that were ≥100 mm^3 (as assessed by high-resolution ultrasonography).

[8] = test system: NSCLC (KrasLA2); test: KrasLA2 genetic tumor model of NSCLC; assay type: in vivo; conditions: KrasLA2 mice, 15 mg/kg
From the text: The model is designed to have sporadic expression in single cells of G12D mutant Kras off its own promoter triggered by spontaneous intrachromosomal recombination. Johnson, et al., Nature 2001, 410, 1111-16. While the mutant Kras protein is expressed in a few cells in all tissues, tumor development is seen only in the lung at high penetrance.

[9] = test system: NK cell lysis of Raji cells; test: Rituximab ADCC 51Cr release assay, Raji targets; assay type: cell-based, human; conditions: 1 μM; NK cells, E:T 25:1
From the text: Cell culture conditions were as follows. […] The HER18 cells were maintained in DEM supplemented with fetal bovine serum, penicillin-streptomycin and. Prior to assay, HER18 cells were harvested using trypsin-EDTA, washed with phosphate-buffered saline (PBS) containing 5% serum and viable cells were counted. For culture of primary target cells, peripheral blood from CLL patients was subject to density centrifugation to obtain peripheral blood mononuclear cells (PBMC). Cell preparations were washed and then subject to positive selection of CD5^+CD19^+ CLL cells using magnetic beads (MACS, Miltenyi Biotech). Cell preparations were used fresh after selection. NK cells from CLL patients and healthy volunteers were enriched from peripheral blood collected in sodium citrate anticoagulant tubes and then subject to density centrifugation. Removal of non NK cells was performed using negative selection by MACS separation. Freshly isolated NK cells were washed three times, enumerated, and then used immediately for ADCC assays.
ADCC assays were performed as follows. Briefly, target cells (Raji or primary CLL) were labeled by incubation at 37° C. with 100 μCi ^51Cr for 4 hours prior to co-culture with NK cells. Cells were washed, enumerated, and then added in triplicate to prepared 96-well plates containing treated NK cells at an effector:target (E:T) ratio of 25:1. […] Cultures were incubated at 37° C. for 4 hours, and then centrifuged. Supernatants were harvested and ^51Cr release was measured by liquid scintillation counting. All experiments were performed in triplicate.

[10] = test system: CD8+ T cells; test: CD8+ T cell viability on anti-TCR/anti-CD28 coated wells; assay type: cell-based; conditions: 4 days, neutral culture conditions
Method: Total T cells were plated on anti-TCR and anti-CD28 coated wells in the presence of both BTK inhibitors. Neutral culture conditions were used that will not polarize T cells to a helper lineage. […] Statistical significance was calculated using the Mann Whitney T-test.

[11] = test system: CD8+ T cell function (B lymphoblast targets); test: Cytotoxic T cell (CTL) assay; assay type: cell-based; conditions: CTL generated 4 days with 500 nM inhibitor
Method: Without being bound by any theory, CD8^+ T cells have two primary effector functions: (1) produce large amounts of IFN-γ (which activates macrophages), and (2) cytolytic activity. […] The targets were B lymphoblasts from lipopolysaccharide (LPS) treated cultures. The assay was performed by incubating different ratios of effectors:targets for 4 hours.

[12] = test system: NK cells and MDSC subsets in peripheral blood; test: Flow cytometry of peripheral blood cell subsets in CLL patients; assay type: in vivo, human; conditions: patients with falling ALC counts; 28 days of dosing
Method: PBMCs were stained with monoclonal antibodies conjugated to fluorescent tags (flourochromes) to identify cell subsets via flow cytometry. Non-viable cells were excluded from the analysis using the dye 7-aminoactinomycin D (7-AAD). To produce the metric of percent change, the following steps were taken. First, each cell subset was defined by hierarchical flow cytometry gating. Then, the change in frequency (between day 1 and day 28) was calculated for each cell subset. MDSC subsets were measured as a % of all myeloid cells. T cell subsets were measured as a % of all CD3^+ cells, and NK cells were measured as a % of all live CD45^+ cells. […] A cycle is 28 days. A trend is observed wherein patients with decreasing ALC % had increasing MDSC (monocytic) %. This may include patients who had quickly resolving lymphocytosis and those with no initial lymphocytosis. […] This may include patients who had quickly resolving lymphocytosis and those having no initial lymphocytosis. The effects in FIG. 47 to FIG. 50 are observed in multiple cohorts, at doses including 100 mg BID, 200 mg QD, and 400 mg QD. In FIG. 51 and FIG. 52, the effects on NK cells and MDSC cells are compared to a number of other markers versus % change in ALC at C1D28 and C2D28. […] The effects on NK cells and MDSC cells are observed to be much more pronounced than on any of these other markers.

With CC#CC(=O)N1CCC[C@H]1c1nc(-c2ccc(C(=O)Nc3ccccn3)cc2)c2c(N)nccn12 [Formula (2), (S)-4-(8-amino-3-(1-(but-2-ynoyl)pyrrolidin-2-yl)imidazo[1,5-a]pyrazin-1-yl)-N-(pyridin-2-yl)benzamide] the “CD8+ T cell function as % cytotoxicity” value [1] was “no effect on CD8^+ T cell function as measured by % cytotoxicity relative to vehicle”, the IC50 [2] was 1150 nM and the “inhibition of in vitro EGFR phosphorylation” value ([3]; 10 μM, A431 human epidermoid cancer cell line) was “no inhibition”. For the same compound, the inhibition at 10 µM ([3]; Homo sapiens, A-431, A431 cells, 2 h, EGF 100 ng/mL 5 min) was 7%, the “body temperature, cardiovascular, ECG (including QT interval) parameters” value [4] was “no meaningful changes” and the “CYP responsible for metabolism” value [5] was “metabolized by CYP3A4”. For the same compound, the “metabolic processes in plasma, bile, and urine” value [6] was “oxidation, glutathione binding, and hydrolysis”, the “CD8+ cells in tumor tissues” value ([7]; 15 mg/kg BID) was “significant increase” and the “MDSCs in tumor tissues” value ([7]; 15 mg/kg BID) was “significantly reduced”. For the same compound, the “Tregs in tumor tissues” value ([7]; 15 mg/kg BID) was “significantly reduced”, the “immunosuppressive TAMs in tumor tissues” value ([7]; 15 mg/kg BID) was “significantly reduced” and the “survival at day 28” value ([7]; 15 mg/kg BID orally) was 5/6. The “average tumor volume, day 28” value ([7]; 15 mg/kg BID orally, day 28) was 272 mm^3, the “average tumor volume, predose” value ([7]; 15 mg/kg BID orally, predose) was 165 mm^3 and the “tumor volumes versus vehicle” value [8] was “significant decrease”. The “effect on rituximab-mediated ADCC, Raji cells” value [9] was “not inhibited”, the “CD8+ T cell viability” value [10] was “not observed” and the “CD8+ T cell function as % cytotoxicity” value [11] was “no effect”. The “NK cells and monocytic MDSC subsets in peripheral blood” value [12] was “increase in frequency”.
